In US20250360091A1, “COMBINATION OF SGLT2 INHIBITOR AND MENTHOL AND USE THEREOF IN TREATMENT OF HEART DISEASE” (EAST CHINA UNIVERSITY OF SCIENCE AND TECHNOLOGY, priority 2023, published 2025):

What was measured:
[1] = system: Rat myocardial cells (H9c2); assay: Glucose deprivation (GD)-induced myocardial cell injury model, cck8 cell survival, checkerboard (Example 1); assay type: cell-based; details: empagliflozin used alone; GD 36-48 h
Description: In this example, a glucose deprivation (GD)-induced myocardial cell injury model was used to evaluate the protective effect of the drug composition on myocardial cells. Rat myocardial cells (H9c2) were purchased from the stem cell bank of the Chinese Academy of Sciences. Myocardial cells were cultured in high-glucose DMEM (containing 10% fetal bovine serum, 1% penicillin/streptomycin) culture medium and placed in an incubator at 37° C. and 5% CO2. After the myocardial cells basically covered the cell culture dish (10 cm), the cells were digested with trypsin and planted in a 96-well plate at a cell density of 8000 cells/well, 100 μL per well. When the cells covered the bottom of the dish, the DMEM culture medium was removed and the plate was washed once with PBS. The compound was diluted to the target concentration with sugar-free and serum-free DMEM, added to the plate, and treated with GD. […] The cell survival rates of empagliflozin (EMPA) 0-100 μM, L-menthol (MEN) 0-200 μM and combined concentrations were tested, and the cell survival rates of single drugs and combined drugs were input into CompuSyn (http://www.combosyn.com) to calculate the synergistic coefficient.

[2] = system: H9c2 cells; assay: GD-induced injury: LDH release and crystal violet staining (Example 2); assay type: cell-based, Rat; details: empagliflozin 100 μM and 200 μM; GD 48 h
Description: To further verify the anti-heart failure efficacy of the drug composition, H9c2 cells were seeded into 24-well plates. After the cells covered the bottom of the dish, the high-glucose DMEM was removed, the plate was washed once with PBS, and empagliflozin alone and different concentrations of the drug composition were prepared with sugar-free and serum-free DMEM medium, and added to the cells for glucose deprivation treatment. For the GD group, sugar-free and serum-free DMEM medium without drugs was added. For the NG group, high-glucose DMEM containing serum was continued to be added for culture. After 48 hours of glucose deprivation treatment, 50 μL of culture medium was taken to a 96-well plate, and the release of LDH in the culture medium was detected using an LDH detection kit. The culture medium was removed, the cells were placed on ice, and washed twice with pre-cooled PBS for 3 to 5 minutes each time. The cells were fixed with pre-cooled methanol at −20° C. for 10 minutes. Methanol was removed and the cells were returned to room temperature. […] The cells were placed in a 37° C. oven for drying, photographed under a microscope, and the staining was quantified by Image J. The larger the purple area, the more cells survived, and the more LDH was released, which indicated more cell damage. […]

[3] = system: PGC-1α, PPARα, CPT1b; assay: Western blotting of fatty acid metabolism proteins (Example 6); assay type: cell-based, Rat; details: 48 h; menthol 200 μM alone or 50 μM empagliflozin + 200 μM menthol
Description: 2. Western blotting. H9c2 cells were seeded in a 12-well plate. After 48 hours of drug treatment, the cells were harvested and the total protein in the cells was extracted with RIPA lysis buffer. After BCA quantification, 4× loading buffer was added and boiled in a 95° C. metal bath for 10 minutes to denature the protein. 5-10 μg of the denatured protein sample was added to SDS-PAGE. After electrophoresis, separation, transfer, and blocking, PGC-1α, PPARα, CPT1b, and GAPDH primary antibody were added and incubated overnight at 4° C. The next day, the primary antibody was recovered, and the corresponding secondary antibody was added and incubated at room temperature for 1 hour. After washing three times, ECL chemiluminescent solution was added to the strips, and immunoblotting analysis was performed using a Tanon gel imager. ImageJ software was used to perform grayscale analysis of the immunoblot bands, GAPDH was used as an internal reference for correction, and the relative expression content of the protein was calculated. The experiment was divided into DMSO group (DMSO treatment group with content not exceeding 0.5%), E50 (50 μM EMPA treatment group), M200 (200 μM menthol treatment group), and E50+M200 (50 μM empagliflozin+200 μM menthol treatment group).

Row | SMILES | effective concentration of empagliflozin (cell survival) [1] [µM] | cell survival rate (crystal violet purple area, LDH release) [2] | expression of PCG-1α/PPARα [3] | expression of fatty acid transporter CPT1b [3]
1 | OC[C@H]1O[C@@H](c2ccc(Cl)c(Cc3ccc(O[C@H]4CCOC4)cc3)c2)[C@H](O)[C@@H](O)[C@@H]1O [empagliflozin] | 50 | significantly increases the cell survival rate in a dose-dependent manner |  | 
2 | CC(C)[C@@H]1CC[C@@H](C)C[C@H]1O [menthol, L-menthol] |  |  | significantly increase the expression | upregulate the expression
